The source of these data is publication PMC7618597, “Dual Nurr1/RXR agonism of valerenic acid and synthetic mimetics enables dimer-selective Nurr1 modulation” (ACS medicinal chemistry letters, 2025).

Series [1] deals with T1, Nurr1:RXR heterodimer (DR5) (Homo sapiens, UniProt P19793+P43354).
T1 construct: full-length human nuclear receptor Nurr1 encoded by pcDNA3.1 -hNurr1-NE; full length human RXRα encoded by pSG5-hRXR; host or cells: HEK293T
In words: Full-length Nurr1 reporter gene assay, heterodimer response element DR5. The following applies: read-out: EC50, activation of the Nurr1:RXR heterodimer (DR5). The class given is cell-based. The procedure: Based on these findings, we next determined the effects of 2 and 3 on Nurr1 activity in a cellular setting using reporter constructs for the NGFI-B response element (NBRE), the Nur response element (NurRE), and the direct repeat 5 (DR5)[36]. All three response elements are robustly activated by common Nurr1 agonists[4],[31]. […]
Reporter gene assays for full-length human Nurr1 and RXR. Modulation of full-length human Nurr1 (NR4A2) was studied using pRL-SV40 (1.5 ng/well reporter plasmid) and the previously described4 reporter plasmids pFR-Luc-NBRE (100 ng/well reporter plasmid), pFR-Luc-NurRE (50 ng/well reporter plasmid) or pFR-Luc-DR5 (50 ng/well reporter plasmid). […] Five hours after transfection, the cells wer e incubated with the test compounds in Opti-MEM supplemented with penicillin (100 U/mL), streptomycin (100 μg/mL), and 0.1% DMSO for 15 h before luciferase activity was measured using the Dual-Glo Luciferase Assay System (Promega) according to the manufacturer’s protocol on a Tecan Spark luminometer (Tecan Deutschland GmbH, Germany). Firefly luminescence was divided by Renilla luminescence and multiplied by 1000, resulting in relative light units (RLU) to normalize for transfection efficiency and cell growth. […]

The next series is described as follows: Chemical stability. The class given is physicochemical. The following applies: compared to 2.

T1 sequence (P43354 whole entry): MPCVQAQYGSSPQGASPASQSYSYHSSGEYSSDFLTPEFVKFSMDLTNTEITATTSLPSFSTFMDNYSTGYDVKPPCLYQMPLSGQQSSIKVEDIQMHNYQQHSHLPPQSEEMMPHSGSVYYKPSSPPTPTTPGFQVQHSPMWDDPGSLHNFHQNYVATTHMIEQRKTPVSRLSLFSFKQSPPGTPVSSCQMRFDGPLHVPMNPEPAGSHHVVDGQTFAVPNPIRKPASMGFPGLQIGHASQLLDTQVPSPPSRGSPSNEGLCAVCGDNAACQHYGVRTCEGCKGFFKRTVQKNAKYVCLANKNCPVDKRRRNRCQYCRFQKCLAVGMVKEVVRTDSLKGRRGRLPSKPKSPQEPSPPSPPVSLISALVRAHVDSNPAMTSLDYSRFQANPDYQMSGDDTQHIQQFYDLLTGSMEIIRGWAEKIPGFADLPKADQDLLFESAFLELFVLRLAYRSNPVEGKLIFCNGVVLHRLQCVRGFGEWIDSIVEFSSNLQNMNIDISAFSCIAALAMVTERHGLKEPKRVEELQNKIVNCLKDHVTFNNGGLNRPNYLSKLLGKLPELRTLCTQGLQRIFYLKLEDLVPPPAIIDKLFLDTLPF
T1 sequence (P19793 whole entry): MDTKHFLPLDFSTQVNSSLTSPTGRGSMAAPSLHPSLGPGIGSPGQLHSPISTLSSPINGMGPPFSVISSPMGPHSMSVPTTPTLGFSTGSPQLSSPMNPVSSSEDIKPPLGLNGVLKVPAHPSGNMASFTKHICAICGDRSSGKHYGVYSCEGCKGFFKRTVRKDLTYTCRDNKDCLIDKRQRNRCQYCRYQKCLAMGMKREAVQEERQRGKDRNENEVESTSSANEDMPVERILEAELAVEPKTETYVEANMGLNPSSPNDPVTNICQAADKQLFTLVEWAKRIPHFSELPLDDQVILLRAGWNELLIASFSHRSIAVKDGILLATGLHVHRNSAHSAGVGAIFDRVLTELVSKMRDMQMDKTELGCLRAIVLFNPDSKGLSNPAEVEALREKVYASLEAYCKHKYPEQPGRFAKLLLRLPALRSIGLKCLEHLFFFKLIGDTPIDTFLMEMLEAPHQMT

On to `Cc1c2c(n(-c3ccc(CC(=O)O)cc3)c1C)CCC(F)(F)C2` [compound 2], for which, in series [1], the EC50 is 1 µM.
For `Cc1c(C)n(-c2ccc(CC(=O)O)cc2)c2ccc(F)cc12` [compound 3], in series [1], the EC50 is 0.6 µM. In addition, the chemical stability entry in “Chemical stability” is given as “improved chemical stability”.

Broadly, the EC50 is the midpoint of the concentration-response curve.
